Like-named read-outs stand apart in the source and are kept apart here.
What was measured:
Yoshida sc. sarcoma = assay: Comparison of the ED50 values on Yoshida sc. sarcoma of rats (transplanted solid tumor); type: in vivo, rat; conditions: for ED50: Rattus norvegicus, Yoshida sc. sarcoma of rats; for Relative activity: calculated by comparing the ED50 values
Experimental: (§1) Our tests were performed on various transplantable mouse and rat tumors. The following tumor strains were applied:
Rat: Yoshida sc. sarcoma
(§2) The tests were always performed on animals of both sexes. At the beginning of the tests the average body weight of mice was 20 to 22 g, whereas that of rats 150 to 180 g. The animals were kept in plastic cages and fed with a standard laboratory animal feed (LATI, Godollo, Hungary). The animals received water ad libitum.
(§3) Solid tumors were transplanted by a subcutaneous implantation of tumor chips. Ascites type tumors were transplanted with 10^7 cells received from the ascites, whereas leukaemia type tumors were transplanted with spleen suspension. The treatment of the animals was started 24 hours after transplantation, with the only exception of Harding-Passey melanoma, when treatment was started on the 4th day after transplantation.

[1] = test system: peripheral blood count (granulocytes, lymphocytes); assay: Effect on peripheral blood count of rats (haematopoiesis); conditions: reference substances; in words
Harding-Passey melanoma = assay: Tumor inhibiting effect on solid tumors: Harding-Passey melanoma; type: in vivo, mouse; conditions: treatment from 4th day after transplantation
Experimental: as §1
Harding-Passey melanoma
as §2, §3
(§4) *Performed on groups of 8 animals

[2] = test system: Walker sc. carcino-sarcoma; conditions: 100 mg/kg, 6 × i.p.; cited from earlier work
S-180 sc. sarcoma [3] = conditions: 200 mg/kg, 8 × i.p.; cited from earlier work
NK/Ly lymphoma [4] = conditions: 125 mg/kg, 6 × i.p.; cited from earlier work
CFLP and BDF1 mice [5] = conditions: same animals, Nemeth et al. 1972, cited from earlier work
S-180 sc. sarcoma [6] = assay: Tumor inhibiting effect on solid tumors: S-180 sc. sarcoma; type: in vivo, mouse
Experimental: as §1
Mouse: SC-180 sc. sarcoma (solid)
as §2, §3, §4

[7] = test system: Walker sc. carcino-sarcoma; assay: Tumor inhibiting effect on solid tumors: Walker sc. sarcoma; type: in vivo, rat; conditions: 10 mg/kg
Experimental: as §1
Walker sc. carcino-sarcoma
as §2, §3, §4

NK/Ly lymphoma [8] = assay: Tumor inhibiting effect on ascites type tumors: NK/Ly lymphoma; type: in vivo, mouse; conditions: 30 mg/kg, 4 × i.p.
Experimental: as §1, §2, §3

Ehrlich asc. carcinoma = assay: Tumor inhibiting effect on ascites type tumors: Ehrlich ascites carcinoma; type: in vivo, mouse
Experimental: as §1, §2, §3
Healing=tumor-free survival of 90 days after transplantation

[9] = Acute toxicity (LD50) on CFLP and BDF1 mice; conditions: mouse, in vivo
Experimental: (§5) The tests were performed on groups consisting of 10 mice (5 males and 5 females), and the animals were kept under observation for 3 weeks.

CFLP and BDF1 mice [10] = assay: Acute toxicity (LD50) on CFLP and BDF1 mice; conditions: in words
Experimental: as §5

[11] = test system: transplantable mouse and rat tumors; assay: Cytostatic effect / growth inhibition on transplantable mouse and rat tumors (overall statements); type: in vivo; conditions: in words
Experimental: as §1, §2, §3

Q: Which results are given for `CS(=O)(=O)OC[C@@H](O)[C@@H](O)[C@H](O)[C@H](O)COS(C)(=O)=O` [1,6-Dimesyl-D-mannitol (Mannogranol), 1,6-dimesyl-D-mannitol]?
A: ED50 (Yoshida sc. sarcoma; ip): 500 mg/kg; ED50 (Yoshida sc. sarcoma; po): 600 mg/kg

Q: For `O[C@@H]([C@H](O)[C@H](O)CBr)[C@H](O)CBr` [1,6-dibromo-1,6-dideoxy-D-mannitol], which ED50 (Yoshida sc. sarcoma; ip) is on record?
A: The ED50 was 490 mg/kg.

Q: What about the ED50 (Yoshida sc. sarcoma; po) of the same molecule?
A: Its ED50 is 170 mg/kg.

Q: And the Relative activity (Yoshida sc. sarcoma; i.p.)?
A: The Relative activity was 0.04.

Q: What about the Relative activity (Yoshida sc. sarcoma; p.o.) of the same molecule?
A: Its Relative activity is 0.41.

Q: What about the “effect on haematopoiesis (formation of myeloid leukocytes)” value [1] of the same molecule?
A: Its value is “rather strong and selective action on the formation of myeloid leukocytes”.

Q: For `O[C@H]([C@H](O)[C@@H](O)CBr)[C@H](O)CBr` [1,6-dibromo-1,6-dideoxy-dulcitol], which ED50 (Yoshida sc. sarcoma; ip) is on record?
A: Its ED50 is 50 mg/kg.

Q: What about the Relative activity (Yoshida sc. sarcoma; i.p.) of the same molecule?
A: Its Relative activity is 0.4.

Q: And the Inhibition (Harding-Passey melanoma; 200 mg/kg, 13 × i.p.)?
A: Its Inhibition is 67.

Q: What about the Inhibition [2] of the same molecule?
A: Its Inhibition is 95.

Q: And the Inhibition (S-180 sc. sarcoma [3])?
A: The Inhibition was 57.

Q: And the “Prol. of life span” value (NK/Ly lymphoma [4])?
A: The value was 90%.

Q: And the LD50 value (CFLP and BDF1 mice [5]; i.p.)?
A: The LD50 value was 900 mg/kg.

Q: And the LD50 value (CFLP and BDF1 mice [5]; p.o.)?
A: Its LD50 value is 1500 mg/kg.

Q: And the “effect on haematopoiesis (formation of myeloid leukocytes)” value [1]?
A: Its value is “rather strong and selective action on the formation of myeloid leukocytes”.

Q: For “1,6-dimesyl-1,6-dideoxy-D-mannitol [reference compound]”, which Inhibition (S-180 sc. sarcoma [6]; 300 mg/kg, 6 × i.p.) is on record?
A: Its Inhibition is 31.

Q: What about the “Inhibition (toxicity reported in this column)” value (S-180 sc. sarcoma [6]; 500 mg/kg, 6 × i.p.) of the same molecule?
A: The value was “toxic”.

Q: What does the source list for `CO[C@@H]([C@H](OC)[C@H](O)COS(C)(=O)=O)[C@H](O)COS(C)(=O)=O` [compound of formula (I), 1,6-dimesyl-3,4-dimethyl-D-mannitol]?
A: ED50 (Yoshida sc. sarcoma; ip): 20 mg/kg; ED50 (Yoshida sc. sarcoma; po): 70 mg/kg; Inhibition ([7]; 5 × i.p.): 90; Inhibition ([7]; 5 × p.o.): 97; Inhibition (S-180 sc. sarcoma [6]; 100 mg/kg, 4 × p.o.): 50; Inhibition (S-180 sc. sarcoma [6]; 200 mg/kg, 6 × p.o.): 70; Inhibition (Harding-Passey melanoma; 30 mg/kg, 10 × p.o.): 31; Inhibition (Harding-Passey melanoma; 100 mg/kg, 10 × p.o.): 52; Prol. of life span (NK/Ly lymphoma [8]): 101%; Prol. of life span (Ehrlich asc. carcinoma; 100 mg/kg, 4 × i.p.): 99.6%; effect on Ehrlich ascites tumor (Ehrlich asc. carcinoma; in words): healing effect; LD50 at 504 h ([9]; ip): 1000 mg/kg; LD50 at 504 h ([9]; po): 1100 mg/kg; toxicity (CFLP and BDF1 mice [10]): low toxicity; oral resorption (CFLP and BDF1 mice [10]; inferred from i.p. vs oral LD50): excellent oral resorption; cytostatic effect [11]: strong cytostatic effect; cytostatic effect compared with Mannogranol, Myelobromol and Elobromol [11]: even more effective; cytostatic effect ([11]; listed as 1,6-dimesyl-3,4-dimethyl-D-mannitol): extremely potent cytostatic agent; inhibition of the growth of solid tumors ([11]; solid tumors, even in very low dosages compared to the toxic one): significantly inhibits the growth of solid tumors

Source: patent US4235803A (priority 1978, dated 1980)
